Article PMC9851725 (International Journal of Biological Macromolecules, 2023)
Read-outs that look alike come from different tables or passages of the source.

Columns and labels:
[1] = test system: SARS-CoV-2; details: Vero-E6 cells ref 9; cited from earlier work
[2] = test system: SARS-CoV-2; format: in vivo, Syrian hamster; details: for reduction in virus RNA levels in throat swabs vs untreated control: daily day 0–4, day 5
[3] = target: T1, SARS-CoV-2 PLpro (Severe acute respiratory syndrome coronavirus 2, UniProt P0DTD1); format: binding
[4] = test system: SARS-CoV-2; format: cell-based
[5] = target: T1, SARS-CoV-2 PLpro; format: biochemical
[6] = target: PLpro (Severe acute respiratory syndrome coronavirus 2, UniProt P0DTD1); assay: Differential scanning fluorimetry; details: PLpro 2.5 μM; ATA 0.78 μM to 200 μM; 20 °C to 90 °C
[7] = 15, 30, 45 mg/kg oral; observation period of five days
[8] = PLpro pre-incubated with GRL0617 for 2 h
[9] = binding to PLpro, no pre-incubation

## Nc1nc2nc[nH]c2c(=S)[nH]1 [6-TG, 6-thioguanine]
[1]
  EC50: ~2000 nM

## O=C(O)C1=CC(=C(c2ccc(O)c(C(=O)O)c2)c2ccc(O)c(C(=O)O)c2)C=CC1=O [ATA, aurintricarboxylic acid]
[2]; 15, 30, 45 mg/kg oral, day 5
  reduction of virus RNA levels in lung tissues vs untreated control: no significant reduction
[2]; 15, 30, 45 mg/kg oral, day 5, H&E
  lung pathology vs untreated: no noticeable difference
[2]; group A, 15 mg/kg oral
  reduction in virus RNA levels in throat swabs vs untreated control: 0.4 log
[2]; group B, 30 mg/kg oral
  reduction in virus RNA levels in throat swabs vs untreated control: 0.4 log
[2]; group C, 45 mg/kg oral
  reduction in virus RNA levels in throat swabs vs untreated control: 1 log
[3]; [8]
  N (stoichiometry): 1.30
  ΔH (enthalpy change): -2.403 kcal/mol
  ΔS (entropy change): 14.6 cal/mol/deg
[3]; [9]
  N (stoichiometry): 1.31
  ΔH (enthalpy change): -2.469 kcal/mol
  ΔS (entropy change): 14.3 cal/mol/deg
[3]; one-site binding model, no pre-incubation
  enthalpy (ΔH): -2.47 kcal/mol
[4]; 25 μM ATA
  % reduction: 3.1%
  Viral RNA copy no./ml: 2404
[4]; 75 μM ATA
  % reduction: 84.2%
  Viral RNA copy no./ml: 393
[4]; 100 μM ATA
  % reduction: 91.7%
  Viral RNA copy no./ml: 207
[4]; 200 μM ATA
  % reduction: 92.2%
  Viral RNA copy no./ml: 193
[4]; 300 μM ATA
  % reduction: 97.1%
  Viral RNA copy no./ml: 71
[4]; 400 μM ATA
  % reduction: 99.0%
  Viral RNA copy no./ml: 25
[5]; best fit of kinetic data among four models (AICc)
  type of inhibition: non-competitive
[5]; compounds up to 300 μM, 200 nM enzyme, 20 μM substrate, 5 mM DTT
  inhibition of PLpro enzymatic activity in library screening: significant inhibition
[6]
  effect on PLpro structure (SYPRO Orange dye fluorescence): stabilizes the protein structure
[7]
  weight loss, gross complications, or mortality: no significant weight loss

## O=C1C=CC(=C(c2ccc(O)cc2)c2ccc(O)cc2)C=C1 [aurin, reference compound]
[5]
  inhibition of PLpro: didn't inhibit
